In one data set the target is hAM1 receptor (Homo sapiens, UniProt O60895+Q16602). The data set can be described thus: cAMP assay for in vitro receptor activation, hAM1-R. The data set is classed as cell-based. The settings on record: for EC50: read-out: hAM1R EC50. In short, it runs like this: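 Receptor activation, read as cAMP, was assessed in thawed cells of a monoclonal hAM1-overexpressing stable line, plated at 8000 cells/well in DPBS supplemented with 0.05% casein and 0.5 mM IBMX.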
In general terms: cAMP levels reflect the balance of adenylyl cyclase and phosphodiesterase activity.

In the next data set the target is T1, hAMY3 receptor (Homo sapiens, UniProt O60896+P30988).
T1 sequence (P30988 25-474): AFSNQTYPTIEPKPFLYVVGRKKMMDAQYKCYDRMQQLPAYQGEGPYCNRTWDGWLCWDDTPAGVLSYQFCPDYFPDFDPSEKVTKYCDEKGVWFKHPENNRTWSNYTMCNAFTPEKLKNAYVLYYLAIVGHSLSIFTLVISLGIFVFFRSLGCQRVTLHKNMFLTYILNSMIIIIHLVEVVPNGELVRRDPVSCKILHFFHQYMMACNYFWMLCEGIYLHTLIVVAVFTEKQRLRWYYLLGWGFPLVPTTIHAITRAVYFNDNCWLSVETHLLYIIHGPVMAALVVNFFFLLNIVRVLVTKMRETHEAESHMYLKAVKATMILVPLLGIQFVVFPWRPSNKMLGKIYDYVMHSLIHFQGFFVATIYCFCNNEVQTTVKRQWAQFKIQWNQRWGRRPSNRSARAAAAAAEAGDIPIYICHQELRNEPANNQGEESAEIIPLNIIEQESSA
T1 sequence (O60896 24-148 partner): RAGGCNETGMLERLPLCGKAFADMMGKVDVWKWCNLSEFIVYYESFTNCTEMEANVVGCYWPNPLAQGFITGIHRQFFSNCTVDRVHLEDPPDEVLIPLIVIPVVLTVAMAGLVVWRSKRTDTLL
As to the kind of experiment: cAMP assay for in vitro receptor activation, hAMY3-R. The data set is classed as cell-based. The settings on record: for EC50: read-out: hAMY3R EC50. In short, it runs like this: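 Monoclonal cell line stably overexpressing hAMY3 receptor, plated in DPBS with 0.05% casein and 0.5 mM IBMX, was stimulated with graded compound doses for 30 min at room temperature. cAMP accumulation was read by time-resolved FRET one hour after adding detection reagents.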

Data set [1] can be described thus: Physical stability of peptide analogues (Thioflavin T fibrillation). The data set is classed as physicochemical. The settings on record: maximum ThT signal normalized between hAMY maximum and buffer background; 40° C., shaking, four days; pH 7 per table title. In short, it runs like this: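 Peptides in 50 mM sodium acetate pH 4 or 50 mM sodium phosphate pH 7 were preincubated 1 h, mixed with 4 μM ThT, held at 40° C with 700 rpm shaking before each read. Fluorescence (ex 450/em 480 nm) every 10 min for four days; LOESS-smoothed maximum signal normalized in percent between hAMY and buffer.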

This note sets out measurements from patent US12139520B2 (priority 2020, dated 2024).

SMILES strings stand for the structures. Read-outs that look alike come from different tables or passages of the source. Bridge positions count the residues as written; N and C are the ends. Square brackets hold non-standard residues; d marks the D form. Peptide text beside a SMILES is read from it. Hyp = O=C(O)[C@@H]1C[C@@H](O)CN1

By EC50 is commonly meant the concentration needed to bring the measured effect to its halfway point.

Sequence of hAM1 receptor (Q16602 23-461): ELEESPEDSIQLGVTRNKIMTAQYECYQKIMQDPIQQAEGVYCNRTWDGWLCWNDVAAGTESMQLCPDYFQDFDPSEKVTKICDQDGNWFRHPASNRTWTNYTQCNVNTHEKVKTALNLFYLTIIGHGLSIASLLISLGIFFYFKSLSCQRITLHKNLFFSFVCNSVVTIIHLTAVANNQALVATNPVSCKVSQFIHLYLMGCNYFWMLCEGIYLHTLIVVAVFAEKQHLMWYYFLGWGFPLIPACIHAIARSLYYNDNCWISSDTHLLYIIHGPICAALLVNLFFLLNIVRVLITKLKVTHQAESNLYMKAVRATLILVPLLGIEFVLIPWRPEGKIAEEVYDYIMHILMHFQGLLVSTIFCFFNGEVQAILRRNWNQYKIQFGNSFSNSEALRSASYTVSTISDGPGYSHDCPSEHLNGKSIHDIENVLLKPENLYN
Sequence of hAM1 receptor (O60895 43-175 partner): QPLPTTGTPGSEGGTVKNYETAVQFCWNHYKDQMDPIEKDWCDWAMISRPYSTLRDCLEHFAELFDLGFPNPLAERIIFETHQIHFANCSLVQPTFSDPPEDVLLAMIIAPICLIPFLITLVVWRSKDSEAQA

For `CC[C@H](C)[C@H](NC(=O)[C@H](CCC(N)=O)NC(=O)[C@H](Cc1c[nH]cn1)NC(=O)[C@H](C)NC(=O)[C@H](CC(C)C)NC(=O)[C@H](CCCNC(=N)N)NC(=O)[C@H](CCC(N)=O)NC(=O)[C@@H](NC(=O)[C@@H](NC(=O)[C@@H]1CSSC[C@H](NC(=O)CN)C(=O)N[C@@H](CCCNC(=N)N)C(=O)N[C@@H](Cc2ccccc2)C(=O)NCC(=O)N[C@@H]([C@@H](C)O)C(=O)N1)[C@@H](C)O)C(C)C)C(=O)N[C@@H](Cc1ccc(O)cc1)C(=O)N[C@@H](CCC(N)=O)C(=O)N[C@@H](Cc1ccccc1)C(=O)N[C@H](C(=O)N[C@@H](CC(=O)O)C(=O)N[C@@H](CCCCN)C(=O)N[C@@H](CC(=O)O)C(=O)N[C@@H](CCCCN)C(=O)N[C@@H](CC(=O)O)C(=O)N[C@@H](CC(N)=O)C(=O)N[C@H](C(=O)N[C@@H](C)C(=O)N1CCC[C@H]1C(=O)N[C@@H](CCCNC(=N)N)C(=O)N[C@@H](CO)C(=O)N[C@@H](CCCCN)C(=O)N[C@H](C(=O)N[C@@H](CO)C(=O)N1CCC[C@H]1C(=O)N[C@@H](CCC(N)=O)C(=O)NCC(=O)N1C[C@H](O)C[C@H]1C(N)=O)[C@@H](C)CC)C(C)C)[C@@H](C)O` [SEQ ID NO: 169, GCRFGTCTVQRLAHQIYQFTDKDKDNVAPRSKISPQG Hyp] (H-GCRFGTCTVQRLAHQIYQFTDKDKDNVAPRSKISPQG[Hyp]-NH2; disulfide 2-7; N-terminus assumed), the EC50 at hAM1 receptor (cAMP accumulation, cells stably overexpressing hAM1 receptor, 30 min stimulation) was 2980 nM; on hAMY3 receptor (cAMP accumulation, cells stably overexpressing hAMY3 receptor, 30 min stimulation), 0.063 nM. In addition, the “decrease of potency on AM1R compared to hAM15-52” value at hAM1 receptor (relative to SEQ ID NO: 1) is “approximately 2500 fold”. Also, at hAMY3 receptor (relative to SEQ ID NO: 1), the “improvement of potency on AMY3R compared to hAM15-52” value was “approximately 20 fold”. Besides, the “Max ThT signal (%)” value in data set [1] is 2.700%.
As for `CC[C@H](C)[C@H](NC(=O)[C@H](CCC(N)=O)NC(=O)[C@H](C)NC(=O)[C@H](C)NC(=O)[C@H](CC(C)C)NC(=O)[C@H](CCCNC(=N)N)NC(=O)[C@H](CCC(N)=O)NC(=O)[C@@H](NC(=O)[C@@H](NC(=O)[C@@H]1CSSC[C@H](NC(=O)[C@@H](N)CCCCN)C(=O)N[C@@H](CC(N)=O)C(=O)N[C@@H]([C@@H](C)O)C(=O)N[C@@H](C)C(=O)N[C@@H]([C@@H](C)O)C(=O)N1)[C@@H](C)O)C(C)C)C(=O)N[C@@H](Cc1ccc(O)cc1)C(=O)N[C@@H](CCC(N)=O)C(=O)N[C@@H](Cc1ccccc1)C(=O)N[C@H](C(=O)N[C@@H](CC(=O)O)C(=O)N[C@@H](CCCCN)C(=O)N[C@@H](CC(=O)O)C(=O)N[C@@H](CCCCN)C(=O)N[C@@H](CC(=O)O)C(=O)N[C@@H](CC(N)=O)C(=O)N[C@H](C(=O)N[C@@H](C)C(=O)N1CCC[C@H]1C(=O)N1CCC[C@H]1C(=O)N[C@H](C(=O)N[C@@H](CC(N)=O)C(=O)N[C@H](C(=O)NCC(=O)N[C@@H](CO)C(=O)N[C@@H](CC(N)=O)C(=O)NCC(=O)N1C[C@H](O)C[C@H]1C(N)=O)C(C)C)[C@@H](C)O)C(C)C)[C@@H](C)O` [compound 7] (H-KCNTATCTVQRLAAQIYQFTDKDKDNVAPPTNVGSNG[Hyp]-NH2; disulfide 2-7; N-terminus assumed), the 50% effective concentration (EC50) was greater than 5000 nM at hAM1 receptor (cAMP assay, hAM1 receptor) and 0.006 nM on hAMY3 receptor (cAMP assay, hAMY3 receptor). The “Max ThT signal (%)” value in data set [1] turned out to be 2.800%.
Taken in the same sequence, the figures for `CC[C@H](C)[C@H](NC(=O)[C@H](C)NC(=O)[C@H](Cc1c[nH]cn1)NC(=O)[C@H](C)NC(=O)[C@H](CC(C)C)NC(=O)[C@H](CCCNC(=N)N)NC(=O)[C@H](CCC(N)=O)NC(=O)[C@@H](NC(=O)[C@@H](NC(=O)[C@@H]1CSSC[C@H](NC(=O)[C@@H](N)CCCCN)C(=O)N[C@@H](CC(N)=O)C(=O)N[C@@H]([C@@H](C)O)C(=O)N[C@@H](C)C(=O)N[C@@H]([C@@H](C)O)C(=O)N1)[C@@H](C)O)C(C)C)C(=O)N[C@@H](Cc1ccc(O)cc1)C(=O)N[C@@H](CCC(N)=O)C(=O)N[C@@H](Cc1ccccc1)C(=O)N[C@H](C(=O)N[C@@H](CC(=O)O)C(=O)N[C@@H](CCCCN)C(=O)N[C@@H](CC(=O)O)C(=O)N[C@@H](CCCCN)C(=O)N[C@@H](CC(=O)O)C(=O)N[C@@H](CC(N)=O)C(=O)N[C@H](C(=O)N[C@@H](C)C(=O)N1CCC[C@H]1C(=O)N1CCC[C@H]1C(=O)N[C@H](C(=O)N[C@@H](CC(N)=O)C(=O)N[C@H](C(=O)NCC(=O)N[C@@H](CO)C(=O)N[C@@H](CC(N)=O)C(=O)NCC(=O)N1C[C@H](O)C[C@H]1C(N)=O)C(C)C)[C@@H](C)O)C(C)C)[C@@H](C)O` [compound 13] (H-KCNTATCTVQRLAHAIYQFTDKDKDNVAPPTNVGSNG[Hyp]-NH2; disulfide 2-7; N-terminus assumed) were greater than 5000 nM, 0.007 nM and 5.000%.
With `CC[C@H](C)[C@H](NC(=O)[C@H](CCC(N)=O)NC(=O)[C@H](Cc1c[nH]cn1)NC(=O)[C@H](C)NC(=O)[C@H](CC(C)C)NC(=O)[C@H](CCCNC(=N)N)NC(=O)[C@H](CCC(N)=O)NC(=O)[C@@H](NC(=O)[C@@H](NC(=O)[C@@H]1CSSC[C@H](NC(=O)[C@@H](N)CCCCN)C(=O)N[C@@H](CC(N)=O)C(=O)N[C@@H]([C@@H](C)O)C(=O)N[C@@H](C)C(=O)N[C@@H]([C@@H](C)O)C(=O)N1)[C@@H](C)O)C(C)C)C(=O)N[C@@H](C)C(=O)N[C@@H](CCC(N)=O)C(=O)N[C@@H](Cc1ccccc1)C(=O)N[C@H](C(=O)N[C@@H](CC(=O)O)C(=O)N[C@@H](CCCCN)C(=O)N[C@@H](CC(=O)O)C(=O)N[C@@H](CCCCN)C(=O)N[C@@H](CC(=O)O)C(=O)N[C@@H](CC(N)=O)C(=O)N[C@H](C(=O)N[C@@H](C)C(=O)N1CCC[C@H]1C(=O)N1CCC[C@H]1C(=O)N[C@H](C(=O)N[C@@H](CC(N)=O)C(=O)N[C@H](C(=O)NCC(=O)N[C@@H](CO)C(=O)N[C@@H](CC(N)=O)C(=O)NCC(=O)N1C[C@H](O)C[C@H]1C(N)=O)C(C)C)[C@@H](C)O)C(C)C)[C@@H](C)O` [compound 14] (H-KCNTATCTVQRLAHQIAQFTDKDKDNVAPPTNVGSNG[Hyp]-NH2; disulfide 2-7; N-terminus assumed), the EC50 at hAM1 receptor (cAMP assay, hAM1 receptor) is greater than 5000 nM; at hAMY3 receptor (cAMP assay, hAMY3 receptor), 0.007 nM. Besides, the “Max ThT signal (%)” value in data set [1] stood at 3.100%.
Taken in the same sequence, the figures for `CC[C@H](C)[C@H](NC(=O)[C@H](CCC(N)=O)NC(=O)[C@H](Cc1c[nH]cn1)NC(=O)[C@H](C)NC(=O)[C@H](CC(C)C)NC(=O)[C@H](CCCNC(=N)N)NC(=O)[C@H](CCC(N)=O)NC(=O)[C@@H](NC(=O)[C@@H](NC(=O)[C@@H]1CSSC[C@H](NC(=O)[C@@H](N)CCCCN)C(=O)N[C@@H](CC(N)=O)C(=O)N[C@@H]([C@@H](C)O)C(=O)N[C@@H](C)C(=O)N[C@@H]([C@@H](C)O)C(=O)N1)[C@@H](C)O)C(C)C)C(=O)N[C@@H](Cc1ccc(O)cc1)C(=O)N[C@@H](CCC(N)=O)C(=O)N[C@@H](Cc1ccccc1)C(=O)N[C@H](C(=O)N[C@@H](CC(=O)O)C(=O)N[C@@H](CCCCN)C(=O)N[C@@H](CC(=O)O)C(=O)N[C@@H](CCCCN)C(=O)N[C@@H](CC(=O)O)C(=O)N[C@@H](CC(N)=O)C(=O)N[C@H](C(=O)N[C@@H](C)C(=O)N1CCC[C@H]1C(=O)N[C@@H](CCCNC(=N)N)C(=O)N[C@H](C(=O)N[C@@H](CCCCN)C(=O)N[C@H](C(=O)NCC(=O)N[C@@H](CO)C(=O)N[C@@H](CC(N)=O)C(=O)NCC(=O)N1C[C@H](O)C[C@H]1C(N)=O)C(C)C)[C@@H](C)O)C(C)C)[C@@H](C)O` [compound 20] (H-KCNTATCTVQRLAHQIYQFTDKDKDNVAPRTKVGSNG[Hyp]-NH2; disulfide 2-7; N-terminus assumed) were greater than 5000 nM, 0.008 nM and 9.100%.
